Consider six molecules from ChEMBL document CHEMBL1201862, “PubChem BioAssay data set” (2004).

The source made the active and inactive calls.

What is called IC50 is the concentration that gives 50% inhibition. As a reminder, the AC50 is the concentration giving half of the maximal activity seen. As a reminder, the EC50 is the concentration giving half of the maximal effect.

For test [1], the target named is T1, Rac GTPase-activating protein 1 (Homo sapiens, UniProt Q9H0H5).
T1 sequence (Q9H0H5 whole entry): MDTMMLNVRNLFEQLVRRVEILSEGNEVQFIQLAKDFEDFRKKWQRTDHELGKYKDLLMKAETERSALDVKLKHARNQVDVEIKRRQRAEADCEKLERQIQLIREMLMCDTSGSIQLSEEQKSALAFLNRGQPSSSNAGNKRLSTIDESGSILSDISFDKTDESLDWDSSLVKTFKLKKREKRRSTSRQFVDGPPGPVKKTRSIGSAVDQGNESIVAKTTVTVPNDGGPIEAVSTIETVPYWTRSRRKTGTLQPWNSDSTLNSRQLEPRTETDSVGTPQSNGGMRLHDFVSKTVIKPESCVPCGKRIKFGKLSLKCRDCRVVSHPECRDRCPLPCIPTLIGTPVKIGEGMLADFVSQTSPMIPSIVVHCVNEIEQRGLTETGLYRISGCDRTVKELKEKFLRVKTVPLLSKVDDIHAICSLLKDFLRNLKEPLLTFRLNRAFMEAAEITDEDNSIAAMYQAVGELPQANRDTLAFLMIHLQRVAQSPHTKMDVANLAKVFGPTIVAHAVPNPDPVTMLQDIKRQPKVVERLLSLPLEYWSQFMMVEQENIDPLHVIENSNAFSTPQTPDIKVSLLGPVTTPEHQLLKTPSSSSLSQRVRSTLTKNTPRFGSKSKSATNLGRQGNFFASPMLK
As to the kind of experiment: blockers of MgcRacGAP-driven Rac1 GTP hydrolysis – biochemical, ADP Hunter fluorescence, primary and confirmatory, confirmation (AID 624330). The test is classed as functional.

Test [2] deals with FAD-linked sulfhydryl oxidase ALR (Homo sapiens, UniProt P55789). As to the kind of experiment: ALR-catalysed DTT oxidation blockers – biochemical, H2O2 detection, luminescence, cherry-pick, dose response (AID 493248).
Sequence of FAD-linked sulfhydryl oxidase ALR (P55789 whole entry): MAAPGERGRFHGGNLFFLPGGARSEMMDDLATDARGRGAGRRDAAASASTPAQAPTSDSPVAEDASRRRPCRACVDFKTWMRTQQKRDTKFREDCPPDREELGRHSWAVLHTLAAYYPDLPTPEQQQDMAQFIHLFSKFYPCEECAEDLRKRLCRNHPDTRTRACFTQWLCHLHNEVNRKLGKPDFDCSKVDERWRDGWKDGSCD
Test [3] in a line: Luminescent dose response cell-based high throughput screening assay for inhibitors of the Janus kinase 2 mutant JAK2V617F. [Related pubchem assays: 1446 (Primary screen.), 1521 (Confirmation assay.), 1486 (Counter screen.)]. The test is classed as functional. In general terms: Counterscreens check selectivity or assay interference.
The subject of test [4] is BJ. As to the kind of experiment: BJ-TERT-LT-ST fibroblast viability loss – cell-based, RAS-independent, luminescence, dose response (AID 1935).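 Further: BJ fibroblasts immortalized with TERT plus LT and ST oncogenes.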 The test is classed as functional. The settings on record: Homo sapiens.
The test system of test [5] is BJ. As to the kind of experiment: BJ-TERT fibroblast viability loss – cell-based, RAS-independent, luminescence, dose response (AID 1933). The test is classed as functional. The settings on record: Homo sapiens.
In test [6] the test system is BJ. As to the kind of experiment: growth inhibition of engineered Ras-driven BJ cells – cell-based, alamar blue fluorescence, cherrypicked samples, dose response (AID 2631).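 Further: confirmatory dose-response assay in RAS-dependent BJ fibroblasts engineered with TERT, LT and ST, with cytotoxicity read by fluorescence.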 The note with it: Homo sapiens. The test is classed as functional. A general note: Resazurin is reduced to fluorescent resorufin, in cell work by metabolically active cells.
Test [7] concerns BJ. As to the kind of experiment: cells. The settings on record: Homo sapiens. The test is classed as functional, cell-based.
A short description of test [8]: DRD fibroblast viability loss – cell-based, non-viral oncogenic, luminescence, dose response (AID 1934). The test is classed as functional. The settings on record: Homo sapiens.
Test [9] has as its target T2, Bcl-2-related protein A1 (Mus musculus, UniProt Q07440).
T2 sequence (Q07440 whole entry): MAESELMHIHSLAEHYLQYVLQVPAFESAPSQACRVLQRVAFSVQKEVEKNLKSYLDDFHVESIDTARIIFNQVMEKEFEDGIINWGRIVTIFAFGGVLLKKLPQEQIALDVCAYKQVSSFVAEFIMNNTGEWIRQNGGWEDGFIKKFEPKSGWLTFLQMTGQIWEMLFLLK
As to the kind of experiment: small-molecule antagonists of Bfl-1/BH3 interaction – biochemical, TR-FRET, mouse Bfl-1, confirmation (AID 621). (In general: TR-FRET usually uses a lanthanide donor and a delayed reading to cut background.)

Test [10] has as its target T2, Bcl-2-related protein A1. As to the kind of experiment: Bfl-1 binding inhibitors, SAR follow-up, biochemical, fluorescence polarization (AID 1070).
In test [11] the target is T3, Cytochrome P450 1A2 (Homo sapiens, UniProt P05177).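 Further: PubChem cytochrome P450 panel assay, CYP1A2 panel member.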
T3 sequence (P05177 whole entry): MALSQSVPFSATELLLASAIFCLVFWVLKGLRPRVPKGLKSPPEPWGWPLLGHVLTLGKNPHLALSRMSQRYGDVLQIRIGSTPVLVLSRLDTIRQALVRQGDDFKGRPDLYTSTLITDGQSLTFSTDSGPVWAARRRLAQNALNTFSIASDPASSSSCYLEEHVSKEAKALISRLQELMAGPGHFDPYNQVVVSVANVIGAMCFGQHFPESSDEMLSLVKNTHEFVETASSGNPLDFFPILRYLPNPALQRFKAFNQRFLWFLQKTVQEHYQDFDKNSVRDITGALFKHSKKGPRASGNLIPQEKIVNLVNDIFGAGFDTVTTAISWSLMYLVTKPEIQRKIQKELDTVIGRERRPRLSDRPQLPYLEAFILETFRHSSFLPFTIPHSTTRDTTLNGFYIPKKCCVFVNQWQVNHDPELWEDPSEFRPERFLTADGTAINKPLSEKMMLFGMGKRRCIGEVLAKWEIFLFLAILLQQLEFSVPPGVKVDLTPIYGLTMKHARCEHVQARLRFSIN

Test [12] concerns the target Cytochrome P450 2C9 (Homo sapiens, UniProt P11712).
The nature of test [13]: loss of viability in HepG2 cells – cell-based, CellTiter-Glo, cherry-picked, cytotoxicity control for Shn3 inhibitor project, dose response (AID 624134). The test is classed as functional.
The nature of test [14]: reduction of Shn3 3'UTR-driven luciferase in osteoblasts – cell-based, Clone20 osteoblasts, firefly luciferase, cherry-picked, dose response (AID 624132).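 Further: firefly luciferase luminescence from reporter carrying the Shn3 3'UTR in osteoblasts.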 In kind it is functional.
Test [15] can be described thus: blockers of HIV-1 ZM109 envelope-driven cell-cell fusion – HeLa effector, CEM target cells, luciferase, cherry-pick, dose response (AID 652058).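 Further: luciferase signal from HIV-1 Env mediated cell-cell fusion of effector and target cells.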 The test is classed as functional, cell-based.
Test [16] is described as follows: off-target signal loss in HeLa-CEM21 co-culture – HeLa F-luc CTL cells, cherry-picked, counter-screen for HIV-1 Env fusion inhibitor project, dose response (AID 652040).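 Further: potency for signal decrease marking cytotoxic or nonspecific inhibition.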 In kind it is functional, cell-based.
Test [17] in a line: non-specific 3'UTR reporter inhibition in Clone20-Shn3RL – cell-based, Renilla luciferase, cherry-picked, counter-screen for Shn3 inhibitor project, dose response (AID 624133). In kind it is functional.
A short description of test [18]: blockers of HIV-1 envelope-mediated cell-cell fusion – cherry-pick, dose response (AID 652057). In kind it is functional, cell-based.
Test [19] is described as follows: microbe, parasite or virus in culture. In kind it is functional. The note with it: Mycobacterium tuberculosis.
Test [20] addresses Cytochrome P450 2D6 (Homo sapiens, UniProt P10635).
Test [21] is described as follows: viability loss in CEM21 cells – cell-based, CellTiter-Glo luminescence, cherry-picked, cytotoxicity control for viral fusion inhibitor project, dose response (AID 652042).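 Further: potency for signal decrease meaning cytotoxicity.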 The test is classed as functional.
Test [22] can be described thus: HIV-1 AD8 envelope cell-cell fusion blockers – cherry-pick, dose response (AID 652062).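 Further: luciferase signal from cell-cell fusion driven by HIV-1 clade B AD8 Env; potency is for inhibitors of fusion seen as a drop in luminescence.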 The test is classed as functional, cell-based.
Test [23] is described as follows: viability loss in Vero cells – cytotoxicity control for Vif-APOBEC3G degradation inhibitor project, dose response (AID 1117358). In kind it is functional. The settings on record: Vero.
Test [24] deals with Galanin receptor type 2 (Homo sapiens, UniProt O43603). As to the kind of experiment: Dose Response cell-based high-throughput screening assay to identify antagonists of galanin receptor 2 (GALR2). [Related pubchem assays: 828, 866 ]. The test is classed as functional.
Sequence of Galanin receptor type 2 (O43603 whole entry, the tested form may be a part): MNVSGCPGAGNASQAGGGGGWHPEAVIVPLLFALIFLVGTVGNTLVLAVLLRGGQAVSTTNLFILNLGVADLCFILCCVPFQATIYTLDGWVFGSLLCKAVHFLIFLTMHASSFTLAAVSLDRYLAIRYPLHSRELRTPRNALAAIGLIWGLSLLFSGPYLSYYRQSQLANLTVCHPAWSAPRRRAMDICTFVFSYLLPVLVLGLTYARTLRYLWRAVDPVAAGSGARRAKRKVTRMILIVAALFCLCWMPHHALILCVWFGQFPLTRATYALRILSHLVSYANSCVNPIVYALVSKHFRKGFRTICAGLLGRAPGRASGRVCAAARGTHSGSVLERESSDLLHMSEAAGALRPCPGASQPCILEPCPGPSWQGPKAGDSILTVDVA
Test [25] is described as follows: Fluorescence-based cell-based high throughput dose response assay for inhibitors of the interaction of nucleotide-binding oligomerization domain containing 2 (NOD2) and the receptor-interacting serine-threonine kinase 2 (RIPK2). The note with it: Homo sapiens. In kind it is functional.
Test [26] has as its target T4, Heat shock factor protein 1 (Mus musculus, UniProt P38532).
T4 sequence (P38532 whole entry): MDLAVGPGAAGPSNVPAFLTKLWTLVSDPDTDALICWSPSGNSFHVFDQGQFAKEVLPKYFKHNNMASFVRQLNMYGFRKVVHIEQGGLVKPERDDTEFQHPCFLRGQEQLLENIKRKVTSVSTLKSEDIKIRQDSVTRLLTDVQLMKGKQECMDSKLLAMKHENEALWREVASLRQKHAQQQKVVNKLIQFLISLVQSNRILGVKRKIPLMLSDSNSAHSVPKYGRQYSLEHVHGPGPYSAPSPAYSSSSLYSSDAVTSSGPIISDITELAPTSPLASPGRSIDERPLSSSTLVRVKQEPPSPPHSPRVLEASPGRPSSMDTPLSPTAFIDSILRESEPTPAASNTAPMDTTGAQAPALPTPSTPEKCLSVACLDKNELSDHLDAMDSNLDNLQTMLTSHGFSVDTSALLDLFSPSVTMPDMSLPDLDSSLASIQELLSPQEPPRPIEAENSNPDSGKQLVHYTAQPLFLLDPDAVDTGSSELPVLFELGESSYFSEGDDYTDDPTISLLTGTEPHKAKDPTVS
As to the kind of experiment: enhancement of HSF1-driven luciferase signal – cell-based, NIH3T3, luminescence, dose retest, confirmation (AID 435004).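 Further: stress induced by proteasome inhibitor MG132 added 30 min after compound; luciferase reporter driven by HSF1 response element in NIH3T3 cells; actives raise luminescence as potentiators of the MG132 stress response.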 In kind it is functional.

Test [27] has as its target T5, Estrogen receptor beta (Homo sapiens, UniProt Q92731). As to the kind of experiment: blockers of SRC-3 recruitment to ERβ – biochemical, ELISA, streptavidin-HRP readout, orthogonal assay, confirmation (AID 1060).
Test [28] addresses T5, Estrogen receptor beta.

T5 sequence (Q92731 whole entry): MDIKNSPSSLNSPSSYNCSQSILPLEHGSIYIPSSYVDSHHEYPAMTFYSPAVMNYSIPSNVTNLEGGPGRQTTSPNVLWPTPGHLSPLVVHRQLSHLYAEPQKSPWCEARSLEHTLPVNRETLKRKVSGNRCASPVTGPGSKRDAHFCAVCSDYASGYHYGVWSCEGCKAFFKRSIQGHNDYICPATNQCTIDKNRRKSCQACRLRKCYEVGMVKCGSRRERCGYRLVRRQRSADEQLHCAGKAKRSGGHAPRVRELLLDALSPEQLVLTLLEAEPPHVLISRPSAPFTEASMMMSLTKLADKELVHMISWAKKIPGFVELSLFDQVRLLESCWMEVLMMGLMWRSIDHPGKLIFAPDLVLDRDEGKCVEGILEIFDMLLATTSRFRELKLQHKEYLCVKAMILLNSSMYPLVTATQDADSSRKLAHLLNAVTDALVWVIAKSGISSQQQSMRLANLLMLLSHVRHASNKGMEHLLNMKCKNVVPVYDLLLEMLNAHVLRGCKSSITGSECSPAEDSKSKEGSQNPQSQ
Sequence of Cytochrome P450 2D6 (P10635 whole entry, the tested form may be a part): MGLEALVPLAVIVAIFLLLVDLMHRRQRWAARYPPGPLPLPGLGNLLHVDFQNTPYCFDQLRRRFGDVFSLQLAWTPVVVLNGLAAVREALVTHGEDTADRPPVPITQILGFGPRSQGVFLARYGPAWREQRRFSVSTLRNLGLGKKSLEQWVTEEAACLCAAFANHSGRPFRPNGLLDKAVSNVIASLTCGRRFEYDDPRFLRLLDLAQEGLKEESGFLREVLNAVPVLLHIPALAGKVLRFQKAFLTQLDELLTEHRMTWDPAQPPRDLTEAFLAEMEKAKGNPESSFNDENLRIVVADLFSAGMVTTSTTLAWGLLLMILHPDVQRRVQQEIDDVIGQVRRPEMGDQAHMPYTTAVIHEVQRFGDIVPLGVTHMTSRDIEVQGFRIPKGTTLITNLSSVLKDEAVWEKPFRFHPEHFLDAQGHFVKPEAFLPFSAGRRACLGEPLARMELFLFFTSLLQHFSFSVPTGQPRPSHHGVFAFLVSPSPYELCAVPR
Sequence of Cytochrome P450 2C9 (P11712 whole entry): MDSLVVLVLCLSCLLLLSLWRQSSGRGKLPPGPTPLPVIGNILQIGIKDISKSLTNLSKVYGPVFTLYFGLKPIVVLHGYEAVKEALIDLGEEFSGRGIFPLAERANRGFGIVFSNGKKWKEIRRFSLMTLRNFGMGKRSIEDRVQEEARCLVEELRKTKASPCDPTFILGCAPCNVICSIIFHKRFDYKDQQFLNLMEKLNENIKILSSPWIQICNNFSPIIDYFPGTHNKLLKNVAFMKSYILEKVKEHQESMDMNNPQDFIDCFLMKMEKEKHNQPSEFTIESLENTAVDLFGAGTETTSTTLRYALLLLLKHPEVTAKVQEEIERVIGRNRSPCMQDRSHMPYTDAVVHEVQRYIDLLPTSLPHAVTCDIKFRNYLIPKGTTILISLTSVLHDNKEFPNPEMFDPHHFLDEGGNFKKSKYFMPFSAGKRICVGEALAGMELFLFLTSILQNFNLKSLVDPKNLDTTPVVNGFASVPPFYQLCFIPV

Turning to `CN(c1ccccc1)S(=O)(=O)c1cccc(C(=O)NCCc2ccc(O)c(O)c2)c1`, the IC50 is 69.2 µM (active) in test [1] and 7.29 µM (active) in [3]. The AC50 in test [2] is 4.37 µM (active).

Turning to `Nc1nc(CCl)nc(N(c2ccccc2)c2ccccc2)n1`, the EC50 in test [4] was 12.1 µM (inconclusive); in test [5], 0.652 µM (inconclusive); in test [6] it was 0.229 µM (active); in test [7] it was 2.65 µM (active); in [8] it was 0.674 µM (active). Moreover, the IC50 in test [3] is 0.721 µM (active).

With `Clc1ncccc1-c1nnn(-c2ccccc2)n1`, the half-inhibitory concentration (IC50) in [9] and in test [10] was > 100 µM (not active) throughout.

With `Nc1nc(Cl)cc(N2CCC(c3cc(-c4ccc(Cl)cc4Cl)[nH]n3)CC2)n1`, the AC50 in test [11] was 6.31 µM (inconclusive); in [12], 22.4 µM (inconclusive); in test [13], 62 µM (active); in test [14], 4.94 µM (active); in [15], 0.394 µM (active); in test [16], > 70 µM (inactive). In addition, the AC50 in test [17] was 5.61 µM (active); in [18], 18.5 µM (active); in test [20] it was 12.6 µM (inconclusive); in [21], 36.1 µM (active); in test [22], 16.6 µM (active). Moreover, the CC50 in test [19] and in [23] was > 40 µM (active) in each case.

With `COc1cc(/C=C/[N+](=O)[O-])ccc1O`, the IC50 was > 4.6 µM (not active) in test [24] and 4.84 µM (active) in test [25]. Also, the EC50 in [4] is > 75 µM (inconclusive); in test [5] it was 10.6 µM (inconclusive); in test [6] it was 4.46 µM (active); in [7] it was 15.5 µM (active); in test [26] it was 8.18 µM (active); in [8] it was 10.3 µM (active).

As to `O=C(COC(=O)C1CC2C=CC1C2)NCc1ccco1` (centres undefined), the IC50 in test [27] was > 109 µM (not active); in test [28] it was 7.15 µM (active).
